From PubChem BioAssay (NCI)
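Test compounds were applied to cells in 96-well plates for 48 hours at 5 doses. GI50 marks 50% less growth. TGI denotes the concentration required for complete inhibition of growth.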

Legend:
Experiment in all cases: growth of human tumour cells (NCI), 48 h
NCI-H23 lung = tested on: NCI-H23 lung
OVCAR-3 ovarian = tested on: OVCAR-3 ovarian
COLO 205 colon = tested on: COLO 205 colon
OVCAR-4 ovarian = tested on: OVCAR-4 ovarian
CCRF-CEM leukemia = tested on: CCRF-CEM leukemia
KM12 colon = tested on: KM12 colon
SNB-19 CNS = tested on: SNB-19 CNS
RPMI-8226 leukemia = tested on: RPMI-8226 leukemia
HT29 colon = tested on: HT29 colon
LOX IMVI melanoma = tested on: LOX IMVI melanoma

SMILES	TGI (NCI-H23 lung) [µM]	TGI (OVCAR-3 ovarian) [µM]	TGI (COLO 205 colon) [µM]	TGI (OVCAR-4 ovarian) [µM]	TGI (CCRF-CEM leukemia) [µM]	TGI (KM12 colon) [µM]	TGI (SNB-19 CNS) [µM]	TGI (RPMI-8226 leukemia) [µM]	TGI (HT29 colon) [µM]	TGI (LOX IMVI melanoma) [µM]	GI50 (LOX IMVI melanoma) [µM]	GI50 (OVCAR-3 ovarian) [µM]	GI50 (COLO 205 colon) [µM]	GI50 (OVCAR-4 ovarian) [µM]	GI50 (CCRF-CEM leukemia) [nM]	GI50 (KM12 colon) [µM]	GI50 (SNB-19 CNS) [µM]	GI50 (RPMI-8226 leukemia) [µM]	GI50 (HT29 colon) [µM]	GI50 (NCI-H23 lung) [µM]
Cc1cc2c(cc1C)[n+](=O)cc(C(=O)C/C(=N/NC(=S)NN)C(=O)Nc1cccc(C(F)(F)F)c1)n2[O-]	> 100	> 100	> 100	> 100	> 100	> 100	> 100	> 100	> 100	–	–	–	–	–	–	–	–	–	–	–
CNc1nc(N)nc(Nc2ccc(I)cc2)c1N=O	> 100	> 100	> 100	–	> 100	> 100	> 100	> 100	> 100	> 100	–	–	–	–	–	–	–	–	–	–
CC1=C(C(=O)Nc2ccccc2)C(c2ccc(Cl)c(Cl)c2)C(C(=O)Nc2ccccc2)=C(C)N1	27	25.3	29.4	27.7	71.4	25.7	32.6	–	24.6	28.5	–	–	–	–	–	–	–	–	–	–
CCN(CCNS(C)(=O)=O)c1ccc(N)c(C)c1	–	8.58	28.9	19.4	7.29	26.9	33.8	8.32	28.7	12.4	3.48	3.15	13.4	6.39	2290	13.1	17.7	3.16	6.16	–
Cc1nc2c(N)ncnc2o1	> 100	> 100	> 100	> 100	> 100	> 100	> 100	–	> 100	> 100	–	–	–	–	–	–	–	–	–	–
Cc1cc(C(=O)CSC(=S)SC(C)(C)C)ccc1Cl	> 100	35.4	33.1	> 100	–	53.3	32	52.1	69	45	–	–	–	–	–	–	–	–	–	–
CC(=O)N/C(=C\c1ccccc1/C=C(\NC(C)=O)c1nc2cc(C)c(C)cc2[nH]1)c1nc2cc(C)c(C)cc2[nH]1	94.9	35.7	> 100	–	> 100	> 100	> 100	64.7	> 100	–	–	–	–	–	–	–	–	–	–	–
C[C@H](CCOc1cccc(CC(=O)O)c1)N(Cc1cccc(C(F)(F)F)c1Cl)CC(c1ccccc1)c1ccccc1	19.2	15.9	–	21.9	20.1	15.1	19.8	22.1	22.9	18.5	5.13	4.77	–	5.26	3690	4.1	6.25	3.48	4.43	4.5
CNCCCNc1ccnc2cc(Cl)ccc12	> 100	95.5	27.4	57.4	–	67.6	> 100	55.7	55.5	36.6	16.8	27.6	12.6	18.7	–	19.4	36.1	20	13.4	30.8
